The text below walks through data of patent US6703365B2, “Glucagon-like insulinotropic peptides, compositions and methods” (Eli Lilly and Company, priority 1993, dated 2004).

“And” between values parts separate entries of the source, which are not always exact repeats. Equal values may be shown once. Read-outs that look alike come from different tables or passages of the source.

Data set [1] in a line: Zinc complexation/precipitation of GLP-1 molecules, protein content of supernatant by 280 nm absorbance (Example 1). Type of data set: physicochemical. The following applies: 0.1M HEPES pH 7.4, about 0.1 mg/mL, 22° C., about 18 hours. On the procedure: Individual aliquots of 5 different GLP-1 molecules were prepared by well-known, solid phase peptide synthesis and were lyophilized in small vials. Portions of 0.1M HEPES (N-[2-hydroxyethyl]piperazine-N′-[2-ethanesulfonic acid]) buffers at pH 7.4 containing various levels of zinc chloride were added to the aliquots to obtain a protein concentration of about 0.1 mg/mL. The samples were mixed and stored at ambient temperature (22° C.) for about 18 hours. The mixtures were then centrifuged (Fisher Model 235C micro-centrifuge) for 5 minutes. The clear supernatants were pipetted from the tubes. The protein content of the supernatants was estimated by measuring their absorbance at 280 nm in a spectrophotometer (Gilford 260). The theoretical absorbance value for a 0.1 mg/mL solution of the GLP-1 molecules at this wavelength in the 1 cm cuvettes is 0.207.

Data set [2] is described as follows: Zinc precipitation of GLP-1 (7-36)NH2, 280 nm absorbance and zinc by atomic absorption in supernatant and redissolved precipitate (Example 2). Format: physicochemical. The method, then: 5 mg of GLP-1 (7-36)NH2 was completely dissolved in 2.5 ML of pH 7.4, zinc-free 0.1M HEPES buffer. An additional 2.5 mL of pH 7.4, 0.1M HEPES buffer containing 0.6 mM zinc chloride was quickly added. The approximate molar ratio of zinc to GLP-1 (7-36)NH2 in this sample is 1 to 1. The solution immediately became cloudy and precipitation soon formed. The mixture was stored at ambient temperature (22° C.) for 18 hours.
The precipitate became firmly attached to the bottom of the glass vial. The supernatant was completely decanted by pipette. The precipitate was then completely dissolved in 5.0 mL of 0.1N hydrochloric acid. The absorbance at 280 nm was determined for both the supernatant and redissolved precipitate solutions. The zinc levels in these solutions were quantitated by atomic absorption spectrophotometry.

For data set [3] the following is noted: intravenous infusion, cited from earlier work.
For data set [4] the following is noted: stored at 4° C.; cited from earlier work.
[5] abbreviates: Zn/GLP-1 molecule molar ratio 0, theoretical absorbance 0.207.
Where [6] appears, read: Zn/GLP-1 molecule molar ratio 0.3.
The mark [7] stands for this setting: Zn/GLP-1 molecule molar ratio 0.5.
The mark [8] stands for this setting: Zn/GLP-1 molecule molar ratio 0.7.
Setting [9] is: Zn/GLP-1 molecule molar ratio 1.0.
Where [10] appears, read: Zn/GLP-1 molecule molar ratio 3.0.
[11] abbreviates: Patients With Maturity Onset Diabetes.

On to “His^7-Ala-Glu-Gly^10-Thr-Phe-Thr-Ser-Asp15-Val-Ser-Ser-Tyr-Leu^20-Glu-Gly-Gln-Ala-Ala^25-Lys-Glu-Phe-Ile-Ala^30-Trp-Leu-Val-Lys-Gly^35-Arg-NH2 [GLP-1 (7-36)NH2]”, for which the “280 nm Absorbance of supernatant” value worked out at 0.172 in data set [1] (setting [5]); 0.099 in data set [1] (setting [6]); 0.057 in data set [1] (setting [7]); 0.035 in data set [1] (setting [8]); 0.039 in data set [1] (setting [9]); 0.048 in data set [1] (setting [10]). The “Zinc Concentration in Parts per Million” value in data set [2] (Redissolved Precipitate (5 ml)) stood at 13.3 Parts per Million; in data set [2] (Supernatant (5 ml)) it was 9.02 Parts per Million. The “280 nm Absorbance” value is 1.932 in data set [2] (Redissolved Precipitate (5 ml) in 0.1N hydrochloric acid) and 0.118 in data set [2] (Supernatant (5 ml), zinc to peptide about 1 to 1, pH 7.4 HEPES, 22° C., 18 hours). In addition, the “zinc concentration of the redissolved precipitate solution” value in data set [2] (equivalent of 13.3 parts per million) amounted to 203 µM. Also, the “GLP-1 (7-36)NH2 concentration of the redissolved precipitate” value in data set [2] (from 280 nm absorbance 1.932) is 0.933 mg/ml and 283 μM. Also, the “molar ratio of zinc to GLP-1 (7-36)NH2 in the precipitate” value in data set [2] (ratio to 1) came out at 0.717. In data set [2] (zinc to peptide about 1 to 1, pH 7.4), the “precipitation from the solution when zinc-containing HEPES solution was added” value is “most of the GLP-1 (7-36)NH2 precipitated from the solution”. The Meal glycemia result was “Unchanged” in data set [3] (Normal Subjects, twice normal serum concentrations) and “Reduced” in data set [3] (setting [11]). The “Endogenous insulin secretion in response to a meal” value was “Unchanged” in data set [3] (Normal Subjects) and “Increased” in data set [3] (setting [11]). For the same substance, the Free fatty acids entry in data set [3] (Normal Subjects) was “Reduced (3)”; in data set [3] (setting [11]) it was “Reduced (2)”. In data set [3] (setting [11]), the Fasting glucagon result is reported as “Reduced”. Further, the Fasting glycemia entry in data set [3] (setting [11]) is “Reduced”. Further, the Post-prandial glucagon result in data set [3] (setting [11]) is reported as “Reduced”.

Regarding “Val^8-GLP-1(7-37) OH [Val^8-GLP-1 (7-37)OH]”, the “280 nm Absorbance of supernatant” value in data set [1] (setting [5]) is 0.187; in data set [1] (setting [6]), 0.191; in data set [1] (setting [7]), 0.184; in data set [1] (setting [8]), 0.180; in data set [1] (setting [9]), 0.173; in data set [1] (setting [10]) it was 0.110.

As to “Gly^8-GLP-1(7-36)NH2 [Gly^8-GLP-1 (7-36)NH2]”, the “280 nm Absorbance of supernatant” value in data set [1] (setting [5]) was found to be 0.136; in data set [1] (setting [6]), 0.079; in data set [1] (setting [7]) it was 0.070; in data set [1] (setting [8]) it was 0.058; in data set [1] (setting [9]), 0.057; in data set [1] (setting [10]) it was 0.044.

GLP-1 (7-37): in data set [4], the “Time after sample preparation at which by-products were found” value is recorded as “eleven”.

Regarding “α-methly-Ala^8-GLP-1(7-36)NH2 [α-methyl-Ala^8-GLP-1 (7-36)NH2]”, the “280 nm Absorbance of supernatant” value in data set [1] (setting [5]) is given as 0.163; in data set [1] (setting [6]) it was 0.134; in data set [1] (setting [7]), 0.098; in data set [1] (setting [8]) it was 0.079; in data set [1] (setting [9]), 0.076; in data set [1] (setting [10]) it was 0.055.

Regarding “Gly^8-Gln^21-GLP-1(7-37)OH [Gly^8-Gln^21 GLP-1 (7-37)OH]”, the “280 nm Absorbance of supernatant” value in data set [1] (setting [5]) worked out at 0.167; in data set [1] (setting [6]), 0.113; in data set [1] (setting [7]), 0.082; in data set [1] (setting [8]) it was 0.069; in data set [1] (setting [9]), 0.065; in data set [1] (setting [10]) it was 0.055.
